Assay results taken from patent publication US10154973B2, “Quinone compounds for treating APE1 mediated diseases” (Indiana University Research and Technology Corporation, priority 2011, dated 2018).
Where two headings read alike, the source gives them in different places.

Key:
pGF-NFκB in Panc1 cells = test: NFκB luciferase reporter assay in Panc1 pancreatic cancer cells; type: cell-based; conditions: Homo sapiens, PANC-1; luciferase activity 40 hrs after treatment; stable pGF-NFκB; read-out: Panel IC50
Procedure: (§1) Using lentiviral transcriptional reporter vectors, pGreenFire-NFkB, and pGreenFire-mCMV (negative control), from System Biosciences Inc. (Mountainview, Calif.), HEK293-T cells (Lonza, Inc. Allendale, N.J.) are transfected with the constructs and the media containing the viral supernatants is collected. To generate stably expressing reporter cell lines, cancer cell lines are infected with the viral supernatant and the cells are selected with puromycin ([…]) for 5 days. For the experiments, test compound is added and left on the cells before being assayed for luciferase activity. SKOV-3X, Panc1, and SF767 cells with the stable pGF-NFκB are treated with test compounds and assayed 40 hrs later for luciferase activity. Panc1 is a pancreatic cancer cell line; SF767 is the glioma cell line. IC50 values for test compounds are determined.

pGF-NFκB in SF767 cells = test: NFκB luciferase reporter assay in SF767 glioma cells; type: cell-based; conditions: SF767 glioma cell line; luciferase activity 40 hrs after treatment; stable pGF-NFκB
Procedure: as §1

Hey-C2 = test: Growth inhibition of ovarian cancer cells, Hey-C2; type: cell-based; conditions: ovarian cancer cell line
Procedure: (§2) Test compounds are assayed for growth inhibition ability against two 2 ovarian cancer cell lines. IC50 values for test compounds are determined.

Skov-3X = test: Growth inhibition of ovarian cancer cells, Skov-3X; type: cell-based; conditions: ovarian cancer cell line
Procedure: as §2

Ape1 = Ape1 (Homo sapiens, UniProt P27695); test: Redox EMSA assay; type: biochemical; conditions: electrophoresis, 0.02 mM DTT
Procedure: Conventional electrophoresis measuring Ape1 expression with 0.02 mM DTT is used to evaluate test compounds. […] Additional details are described in Fishel et al. Mol Cancer Ther. 2011 September; 10(9):1698-708 & Luo et al., Antioxid Redox Signal. 2008 November; 10(11):1853-67.

NFkB = test: Ape1/Ref1 transcription factor activation (NFkB transactivation); type: cell-based; conditions: Hey-C2, SF767, Panc1, and Skov-3X cell lines
Description: The DNA base excision-repair pathway is responsible for the repair of DNA damage caused by oxidation/alkylation and protects cells against the effects of endogenous and exogenous agents. Removal of the damaged base creates a baseless (AP) site. AP endonuclease1 (Ape1) acts on this site to continue the BER-pathway repair. Failure to repair baseless sites leads to DNA strand breaks and cytotoxicity. In addition to the repair role, Ape1 also functions as a major redox-signaling factor to reduce and activate transcription factors such as AP1, p53, HIF-1alpha, and others that control the expression of genes important for cell survival and cancer promotion and progression. Thus, the Ape1 protein interacts with proteins involved in DNA repair, growth-signaling pathways, and pathways involved in tumor promotion and progression. Test compounds are evaluated for activity in decreasing transactivation of transcription factors.

PaCa-2 cells = test: Pancreatic cancer cell xenograft; type: in vivo; conditions: orally 25 mg/kg twice daily for 18 days; PaCa-2 s.c. in NOD/SCID mice; FIG. 1
Procedure: PaCa-2 cells (2.5×10^6) in 0.2 mL of DMEM media were implanted s.c. into the right flanks of NOD/SCID mice. Test compounds are dissolved in 4% CremophorEL:EtOH (1:1)/saline solution or methylcellulose (0.5%, Sigma). When tumor volumes are greater than about 100 mm^3, test compounds are administered, such as orally, twice daily, 8 hours apart, at 25 mg/kg for 10 to 18 days (5 days on 2 days off schedule). Tumors are measured biweekly and followed for approximately 6 weeks. Tumor volumes are monitored by caliper measurement [tumor volume=length×(perpendicular width)2×0.5] and the average tumor volume in mm^3 for each treatment group is plotted. Treatment corresponds to days 1 to 15. Average tumor volume±SE for the vehicle compared to test compounds (n=7) are analyzed by statistical analysis. Additional details are described in Fishel et al. Mol Cancer Ther. 2011 September; 10(9):1698-708.

Pharmacokinetics in mice = conditions: mouse, in vivo, approximate values
Procedure: The pharmacokinetics of test compounds are evaluated in mice using conventional methods, using oral (25 mg/kg), intraperitoneal (25 mg/kg), and intravenous routes (5 mg/kg) of administration. The following approximate Cmax (ng/mL) values for test compounds are determined.

Chain of Ape1 (P27695 whole entry): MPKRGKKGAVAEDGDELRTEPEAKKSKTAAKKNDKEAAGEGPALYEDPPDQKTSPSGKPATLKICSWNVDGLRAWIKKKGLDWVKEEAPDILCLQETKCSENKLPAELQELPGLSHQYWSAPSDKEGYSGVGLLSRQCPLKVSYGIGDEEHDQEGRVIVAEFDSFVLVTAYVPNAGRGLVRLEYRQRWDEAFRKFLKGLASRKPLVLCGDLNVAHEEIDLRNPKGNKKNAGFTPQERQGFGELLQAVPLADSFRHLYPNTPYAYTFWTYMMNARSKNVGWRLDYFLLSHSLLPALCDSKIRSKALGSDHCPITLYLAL

| Structure (SMILES) | IC50 (pGF-NFκB in Panc1 cells) | IC50 (pGF-NFκB in SF767 cells) | IC50 (Hey-C2) | IC50 (Skov-3X) | concentration showing significant signal reduction (Ape1) | Ape1 expression knock-down compared to E3330 (Ape1; in vitro) | % transactivation of NFkB (NFkB) | tumor volume compared to untreated control (PaCa-2 cells) | Cmax (Pharmacokinetics in mice; intravenous 5 mg/kg, read-out: IV Cmax) | Cmax (Pharmacokinetics in mice; ip, intraperitoneal 25 mg/kg, read-out: IP Cmax) | Cmax (Pharmacokinetics in mice; oral 25 mg/kg, read-out: Oral Cmax) |
| --- | --- | --- | --- | --- | --- | --- | --- | --- | --- | --- | --- |
| CCCCCCCCCC(=CC1=C(C)C(=O)C(OC)=C(OC)C1=O)C(=O)N(C)OC [Example 6b] | 10 µM | 18 µM | 22 µM | 32 µM |  |  |  |  |  |  |  |
| CCCC(=CC1=C(OC)C(=O)c2ccccc2C1=O)C(=O)NOC [Example 5d] | 7 µM | 10 µM | 11 µM | 10 µM |  |  |  |  |  |  |  |
| CCCCCCCCC/C(=C\C1=C(C)C(=O)C(OC)=C(OC)C1=O)C(=O)O [Example E3330, reference compound] | 52 µM | 80 µM | ~100 µM | ~100 µM | 30 µM |  |  |  |  |  |  |
| CCCC(=CC1=C(OC)C(=O)c2ccccc2C1=O)C(=O)N(CC)CC [Example 5c] | 8 µM | 18 µM | 25 µM | 30 µM |  |  |  |  |  |  |  |
| CCCCCCCCCC(=CC1=C(C)C(=O)C(OC)=C(OC)C1=O)C(=O)NOC [Example 6a] | 9 µM | 12 µM | 28 µM | 38 µM | 20 µM | improved expression knock-down compared to E3330 | significant decrease | significant reduction in tumor volume |  |  |  |
| COC1=C(C=C(C)C(=O)N(C)C)C(=O)c2ccccc2C1=O [Example 5a] | 5 µM | 10 µM | 18 µM | 17 µM |  |  |  |  | 200 ng/mL | 2000 ng/mL | 200 ng/mL |
